#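 These data come from cells grown in 96-well plates and exposed to compound for 48 hours at five concentrations. The concentration for 50% growth inhibition is given as GI50. The concentration for full growth arrest is given as TGI.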
# Tests used:
# Assay in all cases: NCI-60 cell line screen, 48 h
# A498 renal = tested on: A498 renal
# IGROV1 ovarian = tested on: IGROV1 ovarian
# HCT-116 colon = tested on: HCT-116 colon
# SK-OV-3 ovarian = tested on: SK-OV-3 ovarian
# UACC-62 melanoma = tested on: UACC-62 melanoma
# SK-MEL-2 melanoma = tested on: SK-MEL-2 melanoma
# T-47D breast = tested on: T-47D breast
# SF-539 CNS = tested on: SF-539 CNS
# HCC-2998 colon = tested on: HCC-2998 colon
# KM12 colon = tested on: KM12 colon
# OVCAR-4 ovarian = tested on: OVCAR-4 ovarian
# NCI/ADR-RES ovarian = tested on: NCI/ADR-RES ovarian
# NCI-H226 lung = tested on: NCI-H226 lung
# ACHN renal = tested on: ACHN renal
# UO-31 renal = tested on: UO-31 renal
# TK-10 renal = tested on: TK-10 renal
# HCT-15 colon = tested on: HCT-15 colon
# 786-0 renal = tested on: 786-0 renal
# SK-MEL-28 melanoma = tested on: SK-MEL-28 melanoma
# HT29 colon = tested on: HT29 colon
# RPMI-8226 leukemia = tested on: RPMI-8226 leukemia
# NCI-H522 lung = tested on: NCI-H522 lung
# CAKI-1 renal = tested on: CAKI-1 renal
# SNB-19 CNS = tested on: SNB-19 CNS
# MOLT-4 leukemia = tested on: MOLT-4 leukemia
# LOX IMVI melanoma = tested on: LOX IMVI melanoma
# HOP-62 NSCLC = tested on: HOP-62 NSCLC
# CCRF-CEM leukemia = tested on: CCRF-CEM leukemia
# HL-60(TB) leukemia = tested on: HL-60(TB) leukemia
# SF-268 CNS = tested on: SF-268 CNS
# DU-145 prostate = tested on: DU-145 prostate
# SK-MEL-5 melanoma = tested on: SK-MEL-5 melanoma
# HOP-92 NSCLC = tested on: HOP-92 NSCLC
# OVCAR-3 ovarian = tested on: OVCAR-3 ovarian
# EKVX NSCLC = tested on: EKVX NSCLC
# HS 578T breast = tested on: HS 578T breast
# OVCAR-5 ovarian = tested on: OVCAR-5 ovarian
# SNB-75 CNS = tested on: SNB-75 CNS
# MDA-MB-435 = tested on: MDA-MB-435
# A549 NSCLC = tested on: A549 NSCLC
# NCI-H23 lung = tested on: NCI-H23 lung
# MDA-MB-231 breast = tested on: MDA-MB-231 breast
# COLO 205 colon = tested on: COLO 205 colon
# NCI-H460 lung = tested on: NCI-H460 lung
# SF-295 CNS = tested on: SF-295 CNS
# SW-620 colon = tested on: SW-620 colon
# MCF7 breast = tested on: MCF7 breast
# PC-3 prostate = tested on: PC-3 prostate
# M14 melanoma = tested on: M14 melanoma
# SN12C renal = tested on: SN12C renal
# MALME-3M melanoma = tested on: MALME-3M melanoma
# K-562 leukemia = tested on: K-562 leukemia
# U251 CNS = tested on: U251 CNS
smiles,measurement,setting,value
COc1ccc(-c2cn(-c3ccc(OC)c(OC)c3)c(=O)[nH]2)cc1,GI50,A498 renal,> 100 µM
same,TGI,A498 renal,> 100 µM
same,GI50,IGROV1 ovarian,> 100 µM
same,TGI,IGROV1 ovarian,> 100 µM
same,GI50,HCT-116 colon,> 100 µM
same,TGI,HCT-116 colon,> 100 µM
same,GI50,SK-OV-3 ovarian,> 100 µM
same,TGI,SK-OV-3 ovarian,> 100 µM
same,GI50,UACC-62 melanoma,> 100 µM
same,TGI,UACC-62 melanoma,> 100 µM
same,GI50,SK-MEL-2 melanoma,> 100 µM
same,TGI,SK-MEL-2 melanoma,> 100 µM
same,GI50,T-47D breast,51.5 µM
same,TGI,T-47D breast,> 100 µM
same,GI50,SF-539 CNS,> 100 µM
same,TGI,SF-539 CNS,> 100 µM
same,GI50,HCC-2998 colon,> 100 µM
same,TGI,HCC-2998 colon,> 100 µM
same,GI50,KM12 colon,92.1 µM
same,TGI,KM12 colon,> 100 µM
same,GI50,OVCAR-4 ovarian,75.7 µM
same,TGI,OVCAR-4 ovarian,> 100 µM
same,GI50,NCI/ADR-RES ovarian,85.8 µM
same,TGI,NCI/ADR-RES ovarian,> 100 µM
same,GI50,NCI-H226 lung,> 100 µM
same,TGI,NCI-H226 lung,> 100 µM
same,GI50,ACHN renal,> 100 µM
same,TGI,ACHN renal,> 100 µM
same,GI50,UO-31 renal,> 100 µM
same,TGI,UO-31 renal,> 100 µM
same,GI50,TK-10 renal,> 100 µM
same,TGI,TK-10 renal,> 100 µM
same,GI50,HCT-15 colon,> 100 µM
same,TGI,HCT-15 colon,> 100 µM
same,GI50,786-0 renal,> 100 µM
same,TGI,786-0 renal,> 100 µM
same,GI50,SK-MEL-28 melanoma,> 100 µM
same,TGI,SK-MEL-28 melanoma,> 100 µM
same,GI50,HT29 colon,65.1 µM
same,TGI,HT29 colon,> 100 µM
same,GI50,RPMI-8226 leukemia,> 100 µM
same,TGI,RPMI-8226 leukemia,> 100 µM
same,GI50,NCI-H522 lung,> 100 µM
same,TGI,NCI-H522 lung,> 100 µM
same,GI50,CAKI-1 renal,> 100 µM
same,TGI,CAKI-1 renal,> 100 µM
same,GI50,SNB-19 CNS,> 100 µM
same,TGI,SNB-19 CNS,> 100 µM
same,GI50,MOLT-4 leukemia,1.72 µM
same,TGI,MOLT-4 leukemia,> 100 µM
same,GI50,LOX IMVI melanoma,> 100 µM
same,TGI,LOX IMVI melanoma,> 100 µM
same,GI50,HOP-62 NSCLC,> 100 µM
same,TGI,HOP-62 NSCLC,> 100 µM
same,GI50,CCRF-CEM leukemia,> 100 µM
same,TGI,CCRF-CEM leukemia,> 100 µM
same,GI50,HL-60(TB) leukemia,36.9 µM
same,TGI,HL-60(TB) leukemia,> 100 µM
same,GI50,SF-268 CNS,> 100 µM
same,TGI,SF-268 CNS,> 100 µM
same,GI50,DU-145 prostate,> 100 µM
same,TGI,DU-145 prostate,> 100 µM
same,GI50,SK-MEL-5 melanoma,63.3 µM
same,TGI,SK-MEL-5 melanoma,> 100 µM
same,GI50,HOP-92 NSCLC,> 100 µM
same,TGI,HOP-92 NSCLC,> 100 µM
same,GI50,OVCAR-3 ovarian,> 100 µM
same,TGI,OVCAR-3 ovarian,> 100 µM
same,GI50,EKVX NSCLC,> 100 µM
same,TGI,EKVX NSCLC,> 100 µM
same,GI50,HS 578T breast,> 100 µM
same,TGI,HS 578T breast,> 100 µM
same,GI50,OVCAR-5 ovarian,> 100 µM
same,TGI,OVCAR-5 ovarian,> 100 µM
same,GI50,SNB-75 CNS,24.6 µM
same,TGI,SNB-75 CNS,98.7 µM
same,GI50,MDA-MB-435,50.2 µM
same,TGI,MDA-MB-435,> 100 µM
same,GI50,A549 NSCLC,> 100 µM
same,TGI,A549 NSCLC,> 100 µM
same,GI50,NCI-H23 lung,> 100 µM
same,TGI,NCI-H23 lung,> 100 µM
same,GI50,MDA-MB-231 breast,> 100 µM
same,TGI,MDA-MB-231 breast,> 100 µM
same,GI50,COLO 205 colon,> 100 µM
same,TGI,COLO 205 colon,> 100 µM
same,GI50,NCI-H460 lung,> 100 µM
same,TGI,NCI-H460 lung,> 100 µM
same,GI50,SF-295 CNS,> 100 µM
same,TGI,SF-295 CNS,> 100 µM
same,GI50,SW-620 colon,> 100 µM
same,TGI,SW-620 colon,> 100 µM
same,GI50,MCF7 breast,> 100 µM
same,TGI,MCF7 breast,> 100 µM
same,GI50,PC-3 prostate,> 100 µM
same,TGI,PC-3 prostate,> 100 µM
same,GI50,M14 melanoma,> 100 µM
same,TGI,M14 melanoma,> 100 µM
same,GI50,SN12C renal,> 100 µM
same,TGI,SN12C renal,> 100 µM
same,GI50,MALME-3M melanoma,> 100 µM
same,TGI,MALME-3M melanoma,> 100 µM
same,GI50,K-562 leukemia,37.4 µM
same,TGI,K-562 leukemia,> 100 µM
same,GI50,U251 CNS,> 100 µM
same,TGI,U251 CNS,> 100 µM

# From PubChem BioAssay (NCI)
